From patent publication US7217530B2 (priority 2002, dated 2007)

What was measured:
[1] = target: recombinant PrP protein (recPrP) (Homo sapiens, UniProt P04156); assay type: physicochemical

For “p-sulfonato-3,7-(2-carboxy-methyloxy)-calix-[6]-arene [AML1]”, the “structures observed for recPrP films in the presence of AML” value ([1]; SPM images, FIGS. 3 and 4) was “modified sequentially”, the Average height ([1]; dried film on mica, SPM) was 217.7 and the Maximum height value ([1]; dried film on mica, SPM) was 448.9. The “RMS (root mean square rugosity)” value ([1]; dried film on mica, SPM) was 58.7 nm, the “Ra (average rugosity)” value ([1]; dried film on mica, SPM) was 48 nm and the “dilution up to which detection of PrP^sc in the sample is possible” value (PrP^sc) was 1/32. For the same substance, the “detection of the prion increased over detection of the same protein in the absence of AML1” value (PrP^sc; immunoblotting, FIG. 1, free AML1) was “at least four”.
